Data taken from article PMC10502144, “Anti-methicillin-resistant Staphylococcus aureus activity and safety evaluation of 14-O-[(5-ethoxycarbonyl-4,6-dimethylpyrimidine-2-yl) thioacetyl] mutilin (EDT)” (Scientific Reports, 2023).
Counter-ions that a name gives are not always drawn. Like-named read-outs stand apart in the source and are kept apart here.

Legend:
[1] = test system: GFP expression in S. aureus ATCC 29,213; experiment: Green fluorescent protein (GFP) inhibition assay; assay type: cell-based, Staphylococcus aureus; settings: 1 and 4 μM, co-incubation 4 h, fluorescence microscopy
Procedure: The inhibition assay against GFP expression was performed according to our previous report[41] with minor modification. Plasmids carried erythromycin resistant genes were labeled with GFP and electrotransformed into S. aureus. After screenings using erythromycin, S. aureus strain expressing GFP was then obtained and grown to mid-logarithmic phase, followed by collecting centrifugally and re-suspending with PBS buffer. The obtained suspensions were co-incubated with EDT and tiamulin with the final concentrations of 1 and 4 μM, respectively, for 4 h at 37 °C. The cells were subsequently collected by centrifugation to perform imaging using fluorescence microscopy after re-suspending with PBS buffer.

[2] = test system: MRSA-337371; experiment: microbe, parasite or virus in culture; assay type: cell-based, methicillin-resistant Staphylococcus aureus; settings: for MIC: Staphylococcus aureus, MRSA
Procedure: We performed resistance induction tests on EDT and tiamulin which was used as a referent drug. […] Finally, MRSA was cultured for 30 generations with the same procedure. At the 31st generation, drugs were removed until 40th generation and MICs were determined in each generation.

[3] = test system: clinical isolates of MRSA; experiment: MIC by broth serial-dilution against 48 clinical isolates of MRSA; assay type: cell-based, methicillin-resistant Staphylococcus aureus; settings: Staphylococcus aureus; for MIC: MRSA
Procedure: The tests against 48 clinical isolates of MRSA from dairy farms in 4 different provinces in China[37] were conducted in triplicate, using broth serial-dilution method in 96-well plates according to CLSI reference methods. Briefly, EDT and tiamulin fumarate used as referent drug were dissolved in 25% dimethyl sulfoxide (DMSO) to a solution with concentration of 64 μg/mL. The obtained 100 μL solutions were then added into the first column of the 96-well plate, and diluted to the tenth well with serial twofold dilutions. The last two wells were used as positive controls. The 100 μL bacterial suspension was diluted in MHB to give a final organism density of to 10^5 ~ 10^6 colony-forming unit (CFU) per 1 mL and added to all the wells, followed by incubating at 37 °C for 24 h. […] The results were expressed as an average of the MICs obtained from three independent experiments.

C=C[C@]1(C)C[C@@H](OC(=O)CSCCN(CC)CC)[C@]2(C)[C@H](C)CC[C@]3(CCC(=O)[C@H]32)[C@@H](C)[C@@H]1O [tiamulin, Tiamulin fumarate, reference compound]
inhibition of GFP expression (green fluorescence intensity) [1]: inhibited GFP expression
MIC ([2]; 24 h, read-out: MIC in the resistance development study, day 1): 0.5 µg/mL
MIC ([2]; 48 h, read-out: MIC in the resistance development study, day 2): 0.5 µg/mL
MIC ([2]; 72 h, read-out: MIC in the resistance development study, day 3): 0.5 µg/mL
MIC ([2]; 96 h, read-out: MIC in the resistance development study, day 4): 0.5 µg/mL
MIC ([2]; 120 h, read-out: MIC in the resistance development study, day 5): 0.5 µg/mL
MIC ([2]; 144 h, read-out: MIC in the resistance development study, day 6): 0.5 µg/mL
MIC ([2]; 168 h, read-out: MIC in the resistance development study, day 7): 1 µg/mL
MIC ([2]; 192 h, read-out: MIC in the resistance development study, day 8): 1 µg/mL
MIC ([2]; 216 h, read-out: MIC in the resistance development study, day 9): 1 µg/mL
MIC ([2]; 240 h, read-out: MIC in the resistance development study, day 10): 1 µg/mL
MIC ([2]; 264 h, read-out: MIC in the resistance development study, day 11): 1 µg/mL
MIC ([2]; 288 h, read-out: MIC in the resistance development study, day 12): 1 µg/mL
MIC ([2]; 312 h, read-out: MIC in the resistance development study, day 13): 1 µg/mL
MIC ([2]; 336 h, read-out: MIC in the resistance development study, day 14): 2 µg/mL
MIC ([2]; 360 h, read-out: MIC in the resistance development study, day 15): 1 µg/mL
MIC ([2]; 384 h, read-out: MIC in the resistance development study, day 16): 2 µg/mL
MIC ([2]; 408 h, read-out: MIC in the resistance development study, day 17): 2 µg/mL
MIC ([2]; 432 h, read-out: MIC in the resistance development study, day 18): 2 µg/mL
MIC ([2]; 456 h, read-out: MIC in the resistance development study, day 19): 2 µg/mL
MIC ([2]; 480 h, read-out: MIC in the resistance development study, day 20): 4 µg/mL
MIC ([2]; 504 h, read-out: MIC in the resistance development study, day 21): 2 µg/mL
MIC ([2]; 528 h, read-out: MIC in the resistance development study, day 22): 4 µg/mL
MIC ([2]; 552 h, read-out: MIC in the resistance development study, day 23): 4 µg/mL
MIC ([2]; 576 h, read-out: MIC in the resistance development study, day 24): 4 µg/mL
MIC ([2]; 600 h, read-out: MIC in the resistance development study, day 25): 4 µg/mL
MIC ([2]; 624 h, read-out: MIC in the resistance development study, day 26): 4 µg/mL
MIC ([2]; 648 h, read-out: MIC in the resistance development study, day 27): 4 µg/mL
MIC ([2]; 672 h, read-out: MIC in the resistance development study, day 28): 4 µg/mL
MIC ([2]; 696 h, read-out: MIC in the resistance development study, day 29): 4 µg/mL
MIC ([2]; read-out: MIC in the resistance development study, day 30): 4 µg/mL
MIC ([2]; read-out: MIC in the resistance development study, day 31, drugs removed): 4 µg/mL
MIC ([2]; read-out: MIC in the resistance development study, day 32, drugs removed): 4 µg/mL
MIC ([2]; read-out: MIC in the resistance development study, day 33, drugs removed): 2 µg/mL
MIC ([2]; read-out: MIC in the resistance development study, day 34, drugs removed): 2 µg/mL
MIC ([2]; read-out: MIC in the resistance development study, day 35, drugs removed): 2 µg/mL
increase in the MIC values ([2]; after 7 generations of continuous culture of MRSA): twofold
sensitivity of MRSA after removing drugs ([2]; after removing drugs and culturing for additional 10 generations): recovered the initial sensitivity
increase in the MIC values ([2]; at 22 generations): eightfold
MIC ([3]; range over 48 clinical isolates of MRSA, read-out: MIC values against 48 strains): 0.125 to 1 µg/mL
MIC ([3]; strain CX1, read-out: MIC): 0.5 µg/mL
MIC ([3]; strain CX2, read-out: MIC): 0.5 µg/mL
MIC ([3]; strain CX5, read-out: MIC): 0.5 µg/mL
MIC ([3]; strain CX6, read-out: MIC): 0.5 µg/mL
MIC ([3]; strain CX7, read-out: MIC): 0.5 µg/mL
MIC ([3]; strain CX9, read-out: MIC): 1 µg/mL
MIC ([3]; strain HG1, read-out: MIC): 0.25 µg/mL
MIC ([3]; strain HG2, read-out: MIC): 0.5 µg/mL
MIC ([3]; strain HG3, read-out: MIC): 0.5 µg/mL
MIC ([3]; strain HG4, read-out: MIC): 0.5 µg/mL
MIC ([3]; strain HG5, read-out: MIC): 0.5 µg/mL
MIC ([3]; strain HG6, read-out: MIC): 0.5 µg/mL
MIC ([3]; strain HG7, read-out: MIC): 0.5 µg/mL
MIC ([3]; strain QY4, read-out: MIC): 0.5 µg/mL
MIC ([3]; strain QY5, read-out: MIC): 0.5 µg/mL
MIC ([3]; strain QY6, read-out: MIC): 0.5 µg/mL
MIC ([3]; strain QY8, read-out: MIC): 0.5 µg/mL
MIC ([3]; strain QY10, read-out: MIC): 0.5 µg/mL
MIC ([3]; strain SH3, read-out: MIC): 0.5 µg/mL
MIC ([3]; strain SH4, read-out: MIC): 0.5 µg/mL
MIC ([3]; strain SH6, read-out: MIC): 0.5 µg/mL
MIC ([3]; strain SH7, read-out: MIC): 0.5 µg/mL
MIC ([3]; strain SH8, read-out: MIC): 0.25 µg/mL
MIC ([3]; strain SH9, read-out: MIC): 0.5 µg/mL
MIC ([3]; strain SH10, read-out: MIC): 0.5 µg/mL
MIC ([3]; strain SH11, read-out: MIC): 0.5 µg/mL
MIC ([3]; strain SH12, read-out: MIC): 0.5 µg/mL
MIC ([3]; strain SH13, read-out: MIC): 0.5 µg/mL
MIC ([3]; strain SH14, read-out: MIC): 0.125 µg/mL
MIC ([3]; strain SH15, read-out: MIC): 0.5 µg/mL
MIC ([3]; strain SX5, read-out: MIC): 0.5 µg/mL
MIC ([3]; strain SX6, read-out: MIC): 1 µg/mL
MIC ([3]; strain SX7, read-out: MIC): 0.5 µg/mL
MIC ([3]; strain SX8, read-out: MIC): 0.5 µg/mL
MIC ([3]; strain SX9, read-out: MIC): 0.5 µg/mL
MIC ([3]; strain SX10, read-out: MIC): 0.5 µg/mL
MIC ([3]; strain SX16, read-out: MIC): 1 µg/mL
MIC ([3]; strain SX17, read-out: MIC): 0.5 µg/mL
MIC ([3]; strain SX18, read-out: MIC): 0.5 µg/mL
MIC ([3]; strain ZY1, read-out: MIC): 0.5 µg/mL
MIC ([3]; strain ZY2, read-out: MIC): 0.5 µg/mL
MIC ([3]; strain ZY3, read-out: MIC): 0.25 µg/mL
MIC ([3]; strain ZY4, read-out: MIC): 0.5 µg/mL
MIC ([3]; strain ZY5, read-out: MIC): 0.5 µg/mL
MIC ([3]; strain ZY6, read-out: MIC): 1 µg/mL
MIC ([3]; strain ZY7, read-out: MIC): 0.5 µg/mL
MIC ([3]; strain ZY8, read-out: MIC): 1 µg/mL
MIC ([3]; strain ZY9, read-out: MIC): 0.25 µg/mL
inhibition at 0.0625 µg/mL ([3]; at 0.0625 µg/mL, 48 clinical isolates of MRSA, read-out: strains inhibited): 0%
